Measured values taken from ChEMBL document CHEMBL1145080, “Synthesis and cyclooxygenase-2 inhibiting property of 1,5-diarylpyrazoles with substituted benzenesulfonamide moiety as pharmacophore: Preparation of sodium salt for injectable formulation” (J Med Chem, 2003).
Active and inactive are the calls of the source. The calls are words filed in the database; no cut-off is given here.

Tests used:
Rattus norvegicus [1] = assay: Evaluated in vivo for antiinflammatory activity at 30 mg/kg oral dose in the carrageenan-induced rat paw edema (male Wistar rat); assay type: functional
[2] = target: T1, Prostaglandin G/H synthase 1 (Ovis aries) (UniProt P05979); assay: In vitro inhibition of Prostaglandin G/H synthase 1 (from ram seminal vesicles) at a concentration of […]
T1 sequence (whole entry): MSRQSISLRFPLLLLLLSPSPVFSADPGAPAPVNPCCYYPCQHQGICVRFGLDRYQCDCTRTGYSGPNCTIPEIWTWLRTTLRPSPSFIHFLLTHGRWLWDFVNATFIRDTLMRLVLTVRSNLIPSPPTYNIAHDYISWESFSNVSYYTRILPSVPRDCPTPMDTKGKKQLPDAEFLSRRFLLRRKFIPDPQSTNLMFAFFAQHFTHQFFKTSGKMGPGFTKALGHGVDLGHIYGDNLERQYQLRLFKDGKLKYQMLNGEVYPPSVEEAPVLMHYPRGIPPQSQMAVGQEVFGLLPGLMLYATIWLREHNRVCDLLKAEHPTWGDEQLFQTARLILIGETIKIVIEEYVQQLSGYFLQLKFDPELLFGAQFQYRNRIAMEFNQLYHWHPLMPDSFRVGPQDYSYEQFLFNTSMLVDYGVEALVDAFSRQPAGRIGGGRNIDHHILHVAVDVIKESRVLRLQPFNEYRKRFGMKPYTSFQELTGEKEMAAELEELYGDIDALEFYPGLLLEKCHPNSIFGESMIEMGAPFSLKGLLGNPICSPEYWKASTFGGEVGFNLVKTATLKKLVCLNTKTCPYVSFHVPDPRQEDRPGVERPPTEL

[3] = target: T2, Prostaglandin G/H synthase 1 (Ovis aries, UniProt P05979)
T2 sequence (P05979 whole entry): T1 sequence (whole entry)
Description: In vitro inhibition against Prostaglandin G/H synthase 1 from ram seminal vesicles

Rattus norvegicus [4] = assay: Evaluated in vivo for oral dose required to produce antiinflammatory activity in the rat paw edema assay (male Wistar rat); assay type: functional
[5] = Pharmacokinetic parameter AUC(area under curve) was determined in male Wistar rat after 100 mg/kg oral dose of the compound; assay type: ADME, organism-based; design: dose 100 mg/kg, route oral; details: in vivo
[6] = Partition coefficient (logP); assay type: physicochemical; details: octanol/water
[7] = Pharmacokinetic parameter Tmax was determined in male Wistar rat after 100 mg/kg oral dose of the compound; assay type: ADME, organism-based; design: dose 100 mg/kg, route oral; details: in vivo
[8] = Pharmacokinetic parameter Cmax was determined in male Wistar rat after 100 mg/kg oral dose of the compound; assay type: ADME, organism-based; design: dose 100 mg/kg, route oral; details: in vivo
Rattus norvegicus [9] = assay: Evaluated in vivo for antiinflammatory activity at 30 mg/kg oral dose in the carrageenan-induced rat paw edema (male Wistar rat); Not active; assay type: functional, organism-based; design: dose 30 mg/kg

Row | SMILES | inhibition [2] | inhibition in vivo at 30 mg/kg (Rattus norvegicus [1]) | other results
1 | CCC(=O)NS(=O)(=O)c1ccc(-n2nc(C(F)(F)F)cc2-c2ccc(F)cc2)c(F)c1 | 0% | 38% | 
2 | CSc1ccc(-c2cc(C(F)(F)F)nn2-c2ccc(S(N)(=O)=O)cc2F)cc1 | 29% | 33% | IC50 [3]: 24.3 µM; AUC [5]: 6650 ng·h/mL; logP [6]: 3.81; Tmax [7]: 1.26 h; Cmax [8]: 3210 ng/mL
3 | CC(=O)NS(=O)(=O)c1ccc(-n2nc(C(F)(F)F)cc2-c2ccc(C)cc2)cc1 | 10% | 27% | 
4 | CCC(=O)[N-]S(=O)(=O)c1ccc(-c2c(-c3ccccc3)noc2C)cc1.[Na+] [PARECOXIB SODIUM] |  |  | ED50 (Rattus norvegicus [4]): 5 mg/kg
5 | CCC(=O)[N-]S(=O)(=O)c1ccc(-n2nc(C(F)(F)F)cc2-c2ccc(OC)cc2)c(F)c1.[Na+] | 18% | 78% | ED50 (Rattus norvegicus [4]): 6 mg/kg
6 | CCCC(=O)NS(=O)(=O)c1ccc(-n2nc(C(F)(F)F)cc2-c2ccc(OC)cc2)c(F)c1 | 32% | 42% | 
7 | Cc1ccc(-c2cc(C(F)(F)F)nn2-c2ccc(S(N)(=O)=O)cc2)cc1 [CELECOXIB] |  | 49% | AUC [5]: 23200 ng·h/mL; logP [6]: 3.01; Tmax [7]: 3.25 h; Cmax [8]: 2470 ng/mL; ED50 (Rattus norvegicus [4]): 7.9 mg/kg
8 | CCC(=O)NS(=O)(=O)c1ccc(-n2nc(C(F)(F)F)cc2-c2ccc(SC)cc2)c(F)c1 |  | 37% | 
9 | CS(=O)(=O)c1ccc(C2=C(c3ccccc3)C(=O)OC2)cc1 [ROFECOXIB] |  | 37% | AUC [5]: 57900 ng·h/mL; Tmax [7]: 3 h; Cmax [8]: 5610 ng/mL

Continued, in another order:

Row | inhibition [2] | SMILES | inhibition in vivo at 30 mg/kg (Rattus norvegicus [1]) | other results
10 | 0% | COc1ccc(-c2cc(C(F)(F)F)nn2-c2ccc(S(N)(=O)=O)c(F)c2)cc1 | 52% | IC50 [3]: > 170 µM; ED30 (Rattus norvegicus [4]): 1 mg/kg; ED50 (Rattus norvegicus [4]): 12.7 mg/kg
11 | 75% | COc1ccc(-c2cc(C(F)(F)F)nn2-c2ccc(S(N)(=O)=O)c(C)c2)cc1 |  | 
12 | 34% | CCCC(=O)NS(=O)(=O)c1ccc(-n2nc(C(F)(F)F)cc2-c2ccc(SC)cc2)c(F)c1 | 40% | 
13 | 2% | CCCC(=O)[N-]S(=O)(=O)c1ccc(-n2nc(C(F)(F)F)cc2-c2ccc(C)cc2)cc1.[Na+] | 63% | ED50 (Rattus norvegicus [4]): 6.69 mg/kg
14 | 13% | COc1ccc(-c2cc(C(F)(F)F)nn2-c2ccc(S(N)(=O)=O)cc2F)cc1 | 26% | IC50 [3]: > 30 µM; AUC [5]: 46400 ng·h/mL; logP [6]: 3.14; Tmax [7]: 7.5 h; Cmax [8]: 3300 ng/mL
15 | 100% | COc1ccc2c(c1)c(CC(=O)O)c(C)n2C(=O)c1ccc(Cl)cc1 |  | 
16 | 26% | CC(=O)NS(=O)(=O)c1ccc(-n2nc(C(F)(F)F)cc2-c2ccc(F)cc2)c(F)c1 | 44% | 
17 | 0% | CCCC(=O)NS(=O)(=O)c1ccc(-n2nc(C(F)(F)F)cc2-c2ccc(F)cc2)c(F)c1 | 22% | 
18 | 16% | COc1ccc(-c2cc(C(F)(F)F)nn2-c2ccc(S(=O)(=O)NC(=O)C(C)(C)C)cc2F)cc1 |  | inhibition (Rattus norvegicus [9]): inactive
19 | 0% | CCC(=O)NS(=O)(=O)c1ccc(-n2nc(C(F)(F)F)cc2-c2ccc(C)cc2)cc1 | 30% | 
